Laboratory results taken from patent US20250230155A1 (Vanderbilt University, priority 2021, published 2025).
Read-outs that look alike come from different tables or passages of the source. Values belong to the molecule of their own block, whether it stands above or below them.

Biological target: T1, human mAChR M4 (Homo sapiens, UniProt P08173)
T1 construct: expressed in transfected cells
T1 sequence (P08173 1-479): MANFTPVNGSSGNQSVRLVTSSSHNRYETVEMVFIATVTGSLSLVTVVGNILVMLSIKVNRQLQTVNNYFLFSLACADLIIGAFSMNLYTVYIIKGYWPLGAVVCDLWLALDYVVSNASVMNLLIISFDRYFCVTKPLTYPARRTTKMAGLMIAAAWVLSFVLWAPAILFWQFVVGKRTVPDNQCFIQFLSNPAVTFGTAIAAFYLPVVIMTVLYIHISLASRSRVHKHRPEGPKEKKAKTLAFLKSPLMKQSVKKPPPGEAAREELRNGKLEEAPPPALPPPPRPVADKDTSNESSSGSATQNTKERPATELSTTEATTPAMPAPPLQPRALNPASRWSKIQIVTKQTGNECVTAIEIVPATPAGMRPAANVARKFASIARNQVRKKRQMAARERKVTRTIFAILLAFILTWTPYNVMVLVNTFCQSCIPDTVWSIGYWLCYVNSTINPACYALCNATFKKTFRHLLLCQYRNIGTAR
Assay: mAChR M4 cell-based functional assay (calcium mobilization, CHO-K1 hM4-Gqi5 cells)
Conditions: for Emax at 30 µM: CHO-K1, % ACh maximum at 30 μM, human M4; for EC50: increase in the EC20 acetylcholine response, CHO-K1 hM4-Gqi5 cells; for Emax: CHO-K1
Procedure, shortened: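 Fluorescent calcium read-out (Fluo-4 AM, FDSS, 1 Hz) in hM4-Gqi5 CHO-K1 cells, 11-point 1:3 compound series. Agonism scored on compound addition, PAM activity as increase of the 144 s EC20 acetylcholine response, antagonism as decrease of the 230 s EC80 response; four-parameter logistic fits give EC50 and Emax.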

[1] = positive allosteric modulator activity, read-out: Human M4 EC50

SMILES: Cc1cnc2c(c1)CN(c1nc(C)nc(Cl)c1C)CC2 [compound 209, 6-(6-chloro-2,5-dimethyl-pyrimidin-4-yl)-3-methyl-7,8-dihydro-5H-1,6-naphthyridine]
Emax: 95%
EC50 [1]: 170 nM

SMILES: COCc1nc(Cl)c(C)c(N2CCc3ncc(Br)cc3C2)n1 [compound 211, 3-bromo-6-(6-chloro-2-(methoxymethyl)-5-methylpyrimidin-4-yl)-5,6,7,8-tetrahydro-1,6-naphthyridine]
Emax: 99%
EC50 [1]: 123 nM

SMILES: Cc1nc(Cl)c(C)c(N2CCc3ncc(N)cc3C2)n1 [compound 213, 6-(6-chloro-2,5-dimethylpyrimidin-4-yl)-5,6,7,8-tetrahydro-1,6-naphthyridin-3-amine]
Emax: 94%
EC50 [1]: 1890 nM

SMILES: COCc1nc(Cl)c(C)c(N2CCc3ncc(C(F)(F)F)cc3C2)n1 [compound 214, 6-(6-chloro-2-(methoxymethyl)-5-methylpyrimidin-4-yl)-3-(trifluoromethyl)-5,6,7,8-tetrahydro-1,6-naphthyridine]
Emax at 30 µM: 103%
EC50 [1]: 709 nM

SMILES: Cc1nc(Cl)c(C)c(N2CCc3ncc(C(F)F)cc3C2)n1 [compound 215, 6-(6-chloro-2,5-dimethylpyrimidin-4-yl)-3-(difluoromethyl)-5,6,7,8-tetrahydro-1,6-naphthyridine]
Emax: 93%
EC50 [1]: 137 nM

SMILES: COCc1nc(Cl)c(C)c(N2CCc3ncc(-c4cn(C)nc4C)cc3C2)n1 [compound 216, 6-(6-chloro-2-(methoxymethyl)-5-methylpyrimidin-4-yl)-3-(1,3-dimethyl-1H-pyrazol-4-yl)-5,6,7,8-tetrahydro-1,6-naphthyridine]
Emax at 30 µM: 94%
EC50 [1]: 864 nM

SMILES: COCc1nc(Cl)c(C)c(N2CCc3ncc(-c4cncs4)cc3C2)n1 [compound 217, 5-(6-(6-chloro-2-(methoxymethyl)-5-methylpyrimidin-4-yl)-5,6,7,8-tetrahydro-1,6-naphthyridin-3-yl)thiazole]
Emax at 30 µM: 96%
EC50 [1]: 539 nM

SMILES: Cc1nc(Cl)c(C)c(N2CCc3nc(C(F)(F)F)ccc3C2)n1 [compound 218, 6-(6-chloro-2,5-dimethylpyrimidin-4-yl)-2-(trifluoromethyl)-5,6,7,8-tetrahydro-1,6-naphthyridine]
Emax at 30 µM: 83%
EC50 [1]: 759 nM

SMILES: Cc1nc(Cl)c(C)c(N2Cc3cc(N)cnc3C(C)(C)C2)n1 [compound 219, 6-(6-chloro-2,5-dimethylpyrimidin-4-yl)-8,8-dimethyl-5,6,7,8-tetrahydro-1,6-naphthyridin-3-amine]
Emax: 37%
EC50 [1]: ≥ 10000 nM

SMILES: Cc1nc(Cl)c(C)c(N2CCc3ncc(-c4ccc(N(C)C)nc4)cc3C2)n1 [compound 220, 5-(6-(6-chloro-2,5-dimethylpyrimidin-4-yl)-5,6,7,8-tetrahydro-1,6-naphthyridin-3-yl)-N,N-dimethylpyridin-2-amine]
Emax at 30 µM: 82%
EC50 [1]: 518 nM

SMILES: Cc1nc(C(=O)N2CCOCC2)c(C)c(N2CCc3ncc(C(F)(F)F)cc3C2)n1 [compound 221, (2,5-dimethyl-6-(3-(trifluoromethyl)-7,8-dihydro-1,6-naphthyridin-6(5H)-yl)pyrimidin-4-yl)(morpholino)methanone]
Emax at 30 µM: 25%
EC50 [1]: ≥ 10000 nM

SMILES: Cc1nc(N2CCCC2)c(C)c(N2CCc3ncc(-c4ccc(F)nc4)cc3C2)n1 [compound 223, 6-(2,5-dimethyl-6-(pyrrolidin-1-yl)pyrimidin-4-yl)-3-(6-fluoropyridin-3-yl)-5,6,7,8-tetrahydro-1,6-naphthyridine]
Emax at 30 µM: 56%
EC50 [1]: 3290 nM

SMILES: Cc1nc(Cl)c(C)c(N2CCc3ncc(C4CC4)cc3C2)n1 [compound 225, 6-(6-chloro-2,5-dimethylpyrimidin-4-yl)-3-cyclopropyl-5,6,7,8-tetrahydro-1,6-naphthyridine]
Emax: 87%
EC50 (Human M4 EC50, positive allosteric modulator activity): 57 nM

SMILES: Cc1nn(C)cc1-c1cnc2c(c1)CN(c1nc(CO)nc(C)c1C)CC2 [compound 226, (4-(3-(1,3-dimethyl-1H-pyrazol-4-yl)-7,8-dihydro-1,6-naphthyridin-6(5H)-yl)-5,6-dimethylpyrimidin-2-yl)methanol]
Emax at 30 µM: 89%
EC50 [1]: 346 nM

SMILES: Cc1nc(C)c(C)c(N2CCc3ncc(-c4ccc(N5CCC(F)(F)C5)nc4)cc3C2)n1 [compound 228, 3-(6-(3,3-difluoropyrrolidin-1-yl)pyridin-3-yl)-6-(2,5,6-trimethylpyrimidin-4-yl)-5,6,7,8-tetrahydro-1,6-naphthyridine]
Emax at 30 µM: 66%
EC50 [1]: 890 nM

SMILES: Cc1nc(C)c(C)c(N2CCc3ncc(-c4ccc(N5CCCC5)nc4)cc3C2)n1 [compound 231, 3-(6-(pyrrolidin-1-yl)pyridin-3-yl)-6-(2,5,6-trimethylpyrimidin-4-yl)-5,6,7,8-tetrahydro-1,6-naphthyridine]
Emax at 30 µM: 63%
EC50 [1]: 668 nM

Further lines, results first:

Emax at 30 µM: 76%
EC50 [1]: 304 nM
SMILES: Cc1nc(Cl)c(C)c(N2CCc3ncc(Oc4ccc5c(cnn5C)c4)cc3C2)n1 [compound 208, 6-(6-chloro-2,5-dimethyl-pyrimidin-4-yl)-3-(1-methylindazol-5-yl)oxy-7,8-dihydro-5H-1,6-naphthyridine]

Emax at 30 µM: 98%
EC50 [1]: 65 nM
SMILES: Cc1nc(Cl)c(C)c(N2CCc3ncc(Nc4ccnn4C)cc3C2)n1 [compound 212, 6-(6-chloro-2,5-dimethylpyrimidin-4-yl)-N-(1-methyl-1H-pyrazol-5-yl)-5,6,7,8-tetrahydro-1,6-naphthyridin-3-amine]

Emax at 30 µM: 91%
EC50 [1]: 333 nM
SMILES: Cc1nc(Cl)c(C)c(N2Cc3cc([N+](=O)[O-])cnc3C(C)C2)n1 (stereo not drawn) [compound 222, 6-(6-chloro-2,5-dimethylpyrimidin-4-yl)-8-methyl-3-nitro-5,6,7,8-tetrahydro-1,6-naphthyridine]

Emax at 30 µM: 82%
EC50 [1]: 214 nM
SMILES: Cc1nc(Cl)c(C)c(N2CCc3ncc(-c4ccc(F)nc4)cc3C2)n1 [compound 224, 6-(6-chloro-2,5-dimethylpyrimidin-4-yl)-3-(6-fluoropyridin-3-yl)-5,6,7,8-tetrahydro-1,6-naphthyridine]

Emax at 30 µM: 67%
EC50 [1]: 266 nM
SMILES: Cc1nc(C)c(C)c(N2CCc3ncc(-c4ccc(N5CCOCC5)nc4)cc3C2)n1 [compound 227, 4-(5-(6-(2,5,6-trimethylpyrimidin-4-yl)-5,6,7,8-tetrahydro-1,6-naphthyridin-3-yl)pyridin-2-yl)morpholine]

Emax at 30 µM: 59%
EC50 [1]: 332 nM
SMILES: Cc1nc(C)c(C)c(N2CCc3ncc(-c4ccc(F)nc4)cc3C2)n1 [compound 229, 3-(6-fluoropyridin-3-yl)-6-(2,5,6-trimethylpyrimidin-4-yl)-5,6,7,8-tetrahydro-1,6-naphthyridine]

Emax at 30 µM: 65%
EC50 [1]: 279 nM
SMILES: COc1ccc(-c2cnc3c(c2)CN(c2nc(C)nc(C)c2C)CC3)cn1 [compound 230, 3-(6-methoxypyridin-3-yl)-6-(2,5,6-trimethylpyrimidin-4-yl)-5,6,7,8-tetrahydro-1,6-naphthyridine]

Emax at 30 µM: 61%
EC50 [1]: 263 nM
SMILES: Cc1nc(C)c(C)c(N2CCc3ncc(-c4ccc(-n5ccnc5)nc4)cc3C2)n1 [compound 232, 3-(6-(1H-imidazol-1-yl)pyridin-3-yl)-6-(2,5,6-trimethylpyrimidin-4-yl)-5,6,7,8-tetrahydro-1,6-naphthyridine]
